According to PubChem BioAssay AID2060887 (Molecular Pharmacology Branch, DTP, NCI, 2025):
pIC50: −log10 of the molar value.

Tested on: 782815-120-R-J1-PDC complex spheroid viability
Test: Anticancer human tumor 782815-120-R-J1-PDC patient-derived colon adenocarcinoma cell line growth inhibition [RAS]
Conditions: for viability, T/C: stronger effect = lower value
In short: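 Tumour cells grown as complex spheroids with HUVEC endothelial cells and mesenchymal stem cells, treated with RAS pathway inhibitor combinations. Each agent spans half-log steps from near clinical Cmax, or 10 microM where Cmax is unknown.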

[1] = curve of first compound, second compound 0.000949 µM
[2] = curve of first compound, second compound 0.003 µM
[3] = curve of first compound, second compound 0.00949 µM
[4] = curve of first compound, second compound 0.03 µM
[5] = curve of first compound, second compound 0.0949 µM
[6] = curve of first compound, second compound 0.3 µM
[7] = second compound 0.000949 µM, first compound 0.0316 µM
[8] = second compound 0.000949 µM, first compound 0.1 µM
[9] = second compound 0.000949 µM, first compound 0.316 µM
[10] = second compound 0.000949 µM, first compound 1 µM
[11] = second compound 0.000949 µM, first compound 3.16 µM
[12] = second compound 0.000949 µM, first compound 10 µM
[13] = second compound 0.003 µM, first compound 0.0316 µM
[14] = second compound 0.003 µM, first compound 0.1 µM
[15] = second compound 0.003 µM, first compound 0.316 µM
[16] = second compound 0.003 µM, first compound 1 µM
[17] = second compound 0.003 µM, first compound 3.16 µM
[18] = second compound 0.003 µM, first compound 10 µM
[19] = second compound 0.00949 µM, first compound 0.0316 µM
[20] = second compound 0.00949 µM, first compound 0.1 µM
[21] = second compound 0.00949 µM, first compound 0.316 µM
[22] = second compound 0.00949 µM, first compound 1 µM
[23] = second compound 0.00949 µM, first compound 3.16 µM
[24] = second compound 0.00949 µM, first compound 10 µM
[25] = second compound 0.03 µM, first compound 0.0316 µM
[26] = second compound 0.03 µM, first compound 0.1 µM
[27] = second compound 0.03 µM, first compound 0.316 µM
[28] = second compound 0.03 µM, first compound 1 µM
[29] = second compound 0.03 µM, first compound 3.16 µM
[30] = second compound 0.03 µM, first compound 10 µM
[31] = second compound 0.0949 µM, first compound 0.0316 µM
[32] = second compound 0.0949 µM, first compound 0.1 µM
[33] = second compound 0.0949 µM, first compound 0.316 µM
[34] = second compound 0.0949 µM, first compound 1 µM
[35] = second compound 0.0949 µM, first compound 3.16 µM
[36] = second compound 0.0949 µM, first compound 10 µM
[37] = second compound 0.3 µM, first compound 0.0316 µM
[38] = second compound 0.3 µM, first compound 0.1 µM
[39] = second compound 0.3 µM, first compound 0.316 µM
[40] = second compound 0.3 µM, first compound 1 µM
[41] = second compound 0.3 µM, first compound 3.16 µM
[42] = second compound 0.3 µM, first compound 10 µM
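Further: spheroids exposed to compounds for 7 days before reading.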
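Wherever viability, T/C is given: 100% = DMSO vehicle control viability.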

In the case of `CC(Nc1ccc2c(c1)OCCn1cc(N3C(=O)OCC3C(F)F)nc1-2)C(N)=O` (stereo not drawn) + CCn1c(-c2cccnc2C(C)OC)c2c3cc(ccc31)N1CCOC(CC(NC(=O)C(C(C)C)N(C)C(=O)C3(F)CCN(C(=O)C#CC(C)(C)N(C)C)CC3)C(=O)N3CCCC(N3)C(=O)OCC(C)(C)C2)C1, the pIC50 [1] was under 5.00, the pIC50 [2] was under 5.00 and the pIC50 [3] was under 5.00. The pIC50 [4] was under 5.00, the pIC50 [5] was under 5.00 and the pIC50 [6] was under 5.00. It also gave a viability, T/C [7] of 93.3%, a viability, T/C [8] of 93.9% and a viability, T/C [9] of 82.2%. It also gave a viability, T/C [10] of 95.2%, a viability, T/C [11] of 99.2% and a viability, T/C [12] of 81.4%. For the same compound, the viability, T/C [13] was 93.6%, the viability, T/C [14] was 94.5% and the viability, T/C [15] was 93%. For the same compound, the viability, T/C [16] was 90.8%, the viability, T/C [17] was 93.5% and the viability, T/C [18] was 97.5%. For the same compound, the viability, T/C [19] was 93.4%, the viability, T/C [20] was 101% and the viability, T/C [21] was 91.1%. It also gave a viability, T/C [22] of 95.4%, a viability, T/C [23] of 93.8% and a viability, T/C [24] of 90.8%. It also gave a viability, T/C [25] of 90.7%, a viability, T/C [26] of 97% and a viability, T/C [27] of 90.4%. For the same compound, the viability, T/C [28] was 89.9%, the viability, T/C [29] was 102% and the viability, T/C [30] was 93.2%. For the same compound, the viability, T/C [31] was 85.9%, the viability, T/C [32] was 95.3% and the viability, T/C [33] was 81%. For the same compound, the viability, T/C [34] was 98.9%, the viability, T/C [35] was 106% and the viability, T/C [36] was 94.8%. The viability, T/C [37] was 95.1%, the viability, T/C [38] was 92% and the viability, T/C [39] was 90%. The viability, T/C [40] was 82.8%, the viability, T/C [41] was 94.6% and the viability, T/C [42] was 87.3%.

`Cc1nc(N2CCC3(CC2)COC(C)C3N)c(CO)nc1Sc1ccnc(N)c1Cl` (stereo not drawn) was tested, and the viability, T/C (compound 0.0316 µM) was 96.6% [middle of 4 runs], the viability, T/C (compound 0.1 µM) was 99.8% [middle of 4 runs] and the viability, T/C (compound 0.316 µM) was 93.7% [middle of 4 runs]. For the same compound, the viability, T/C (compound 1 µM) was 94.7% [middle of 4 runs], the viability, T/C (compound 3.16 µM) was 98.3% [middle of 4 runs] and the viability, T/C (compound 10 µM) was 104% [middle of 4 runs]. The pIC50 (curve of compound) was under 5.00.

For `C=CC(=O)Nc1cc(Nc2nccc(-c3cn(C)c4ccccc34)n2)c(OC)cc1N(C)CCN(C)C` + C#Cc1c(F)ccc2cc(O)cc(-c3ncc4c(N5CC6CCC(C5)N6)nc(OCC56CCCN5CC(F)C6)nc4c3F)c12, the pIC50 (curve of first compound, second compound 0.0316 µM) was under 6.00, the pIC50 (curve of first compound, second compound 0.1 µM) was under 6.00 and the pIC50 (curve of first compound, second compound 0.316 µM) was under 6.00. For the same compound, the pIC50 (curve of first compound, second compound 1 µM) was under 6.00, the pIC50 (curve of first compound, second compound 3.16 µM) was under 6.00 and the pIC50 (curve of first compound, second compound 10 µM) was under 6.00. The viability, T/C (second compound 0.0316 µM, first compound 0.00316 µM) was 99.3%, the viability, T/C (second compound 0.0316 µM, first compound 0.01 µM) was 93.8% and the viability, T/C (second compound 0.0316 µM, first compound 0.0316 µM) was 101%. The viability, T/C (second compound 0.0316 µM, first compound 0.1 µM) was 97.2%, the viability, T/C (second compound 0.0316 µM, first compound 0.316 µM) was 98.9% and the viability, T/C (second compound 0.0316 µM, first compound 1 µM) was 93.6%. It also gave a viability, T/C (second compound 0.1 µM, first compound 0.00316 µM) of 103%, a viability, T/C (second compound 0.1 µM, first compound 0.01 µM) of 97.2% and a viability, T/C (second compound 0.1 µM, first compound 0.0316 µM) of 97.5%. It also gave a viability, T/C (second compound 0.1 µM, first compound 0.1 µM) of 93.6%, a viability, T/C (second compound 0.1 µM, first compound 0.316 µM) of 101% and a viability, T/C (second compound 0.1 µM, first compound 1 µM) of 89.5%. For the same compound, the viability, T/C (second compound 0.316 µM, first compound 0.00316 µM) was 98.2%, the viability, T/C (second compound 0.316 µM, first compound 0.01 µM) was 94.3% and the viability, T/C (second compound 0.316 µM, first compound 0.0316 µM) was 105%. For the same compound, the viability, T/C (second compound 0.316 µM, first compound 0.1 µM) was 89%, the viability, T/C (second compound 0.316 µM, first compound 0.316 µM) was 95% and the viability, T/C (second compound 0.316 µM, first compound 1 µM) was 101%. It also gave a viability, T/C (second compound 1 µM, first compound 0.00316 µM) of 95.5%, a viability, T/C (second compound 1 µM, first compound 0.01 µM) of 96% and a viability, T/C (second compound 1 µM, first compound 0.0316 µM) of 101%. For the same compound, the viability, T/C (second compound 1 µM, first compound 0.1 µM) was 92.4%, the viability, T/C (second compound 1 µM, first compound 0.316 µM) was 100% and the viability, T/C (second compound 1 µM, first compound 1 µM) was 101%. The viability, T/C (second compound 3.16 µM, first compound 0.00316 µM) was 99.9%, the viability, T/C (second compound 3.16 µM, first compound 0.01 µM) was 101% and the viability, T/C (second compound 3.16 µM, first compound 0.0316 µM) was 98.4%. The viability, T/C (second compound 3.16 µM, first compound 0.1 µM) was 94.4%, the viability, T/C (second compound 3.16 µM, first compound 0.316 µM) was 97% and the viability, T/C (second compound 3.16 µM, first compound 1 µM) was 95.8%. The viability, T/C (second compound 10 µM, first compound 0.00316 µM) was 100%, the viability, T/C (second compound 10 µM, first compound 0.01 µM) was 91.7% and the viability, T/C (second compound 10 µM, first compound 0.0316 µM) was 110%. For the same compound, the viability, T/C (second compound 10 µM, first compound 0.1 µM) was 101%, the viability, T/C (second compound 10 µM, first compound 0.316 µM) was 94.4% and the viability, T/C (second compound 10 µM, first compound 1 µM) was 91.7%.

In the case of `NC1c2ccccc2OC12CCN(c1cnc3c(N4CCCc5ncccc54)n[nH]c3n1)CC2` (stereo not drawn) + CCn1c(-c2cc(N3CCN(C)CC3)cnc2C(C)OC)c2c3cc(ccc31)-c1csc(n1)CC(NC(=O)C1CC1C)C(=O)N1CCCC(N1)C(=O)OCC(C)(C)C2, the pIC50 [1] was under 5.00, the pIC50 [2] was 5.78 and the pIC50 [3] was over 7.50. For the same compound, the pIC50 [4] was over 7.50, the pIC50 [5] was over 7.50 and the pIC50 [6] was over 7.50. For the same compound, the viability, T/C [7] was 74.5%, the viability, T/C [8] was 74.1% and the viability, T/C [9] was 73.3%. It also gave a viability, T/C [10] of 67.9%, a viability, T/C [11] of 78.7% and a viability, T/C [12] of 67.8%. It also gave a viability, T/C [13] of 50.3%, a viability, T/C [14] of 53.9% and a viability, T/C [15] of 56.5%. The viability, T/C [16] was 47.6%, the viability, T/C [17] was 49.1% and the viability, T/C [18] was 44%. It also gave a viability, T/C [19] of 26.1%, a viability, T/C [20] of 33.1% and a viability, T/C [21] of 23.6%. For the same compound, the viability, T/C [22] was 23.7%, the viability, T/C [23] was 24.4% and the viability, T/C [24] was 21.2%. The viability, T/C [25] was 15.9%, the viability, T/C [26] was 17.1% and the viability, T/C [27] was 18.2%. For the same compound, the viability, T/C [28] was 16.2%, the viability, T/C [29] was 18.7% and the viability, T/C [30] was 14.6%. For the same compound, the viability, T/C [31] was 16.4%, the viability, T/C [32] was 17.4% and the viability, T/C [33] was 18.8%. For the same compound, the viability, T/C [34] was 20.6%, the viability, T/C [35] was 18.8% and the viability, T/C [36] was 13.6%. It also gave a viability, T/C [37] of 16.4%, a viability, T/C [38] of 15.7% and a viability, T/C [39] of 17.6%. For the same compound, the viability, T/C [40] was 16.4%, the viability, T/C [41] was 19.1% and the viability, T/C [42] was 11.8%.
